# Legend:
# Format in all cases: in vivo
# [1] = system: common cutworm (Spodoptera Litura); assay: Insecticidal effect on common cutworm (Test Example 2); conditions: common cutworm second-instar larvae; cabbage leaf immersed, 500 ppm; eight days after inoculation; 25° C.
# In short: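 After the treated material air-dries, it goes into a dish, second-instar larvae are added, and the dish is closed. Incubation runs at 25° C. On day eight, dead and living larvae are scored, and the calculated mortality is rated on an effect scale.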
# [2] = system: diamondback moth (Plutella xylostella); assay: Insecticidal effect on diamondback moth (Test Example 1); conditions: diamondback moth; mortality judged by criterion of Test Example 1
# In short: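 Read-out was mortality from hatched-insect counts taken 6 days after the egg-bearing cabbage seedling was immersed, graded by set criteria. Seedlings were air-dried and kept at 25° C after treatment. Groups of 10 insects, in triplicate.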
# [3] = system: rice leafroller (Cnaphalocrocis medinalis); assay: Insecticidal effect on rice leafroller (Test Example 3); conditions: rice leafroller third-instar larvae; rice lamina immersed, 500 ppm; four days after inoculation; 25° C., humidity 70%
# In short: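 Groups of 10 third-instar larvae, in triplicate, are placed on air-dried lamina resting on wet filter paper. Incubation runs four days at 25° C with 70% humidity before survivors and dead are tallied.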
smiles,measurement,setting,value
CC(C)NC(=O)c1c(I)cccc1C(=O)Nc1ccc2c(c1)OC(F)(F)C(F)O2 (stereo not drawn) [compound 1161],"Insecticidal effect, Test Example 2",[1],D (79-50)
same,"Insecticidal effect, Test Example 1",[2],A (100)
same,"Insecticidal effect, Test Example 3",[3],A (100)
CC(C)NC(=O)c1c(C(=O)Nc2ccc3c(c2)OC(F)(F)C(F)O3)cccc1[N+](=O)[O-] (stereo not drawn) [compound 1162],"Insecticidal effect, Test Example 2",[1],A (100)
same,"Insecticidal effect, Test Example 1",[2],A (100)
same,"Insecticidal effect, Test Example 3",[3],A (100)
CC(C)NC(=O)c1c(Cl)cccc1C(=O)Nc1ccc2c(c1)OC(F)(F)C(F)O2 (stereo not drawn) [compound 1163],"Insecticidal effect, Test Example 2",[1],A (100)
same,"Insecticidal effect, Test Example 1",[2],A (100)
same,"Insecticidal effect, Test Example 3",[3],A (100)
CC(C)NC(=O)c1c(I)cccc1C(=O)Nc1ccc2c(c1)OC(F)(F)C(F)O2 (stereo not drawn) [compound 1164],"Insecticidal effect, Test Example 2",[1],A (100)
same,"Insecticidal effect, Test Example 1",[2],A (100)
same,"Insecticidal effect, Test Example 3",[3],A (100)
CC(C)(C)NC(=O)c1ccccc1C(=O)Nc1ccc2c(c1)OC(F)(F)C(F)O2 (stereo not drawn) [compound 1165],"Insecticidal effect, Test Example 2",[1],A (100)
same,"Insecticidal effect, Test Example 1",[2],A (100)
same,"Insecticidal effect, Test Example 3",[3],A (100)
CCN(CC)C(=O)c1c(I)cccc1C(=O)Nc1ccc2c(c1)OC(F)(F)C(F)O2 (stereo not drawn) [compound 1167],"Insecticidal effect, Test Example 2",[1],A (100)
same,"Insecticidal effect, Test Example 1",[2],A (100)
same,"Insecticidal effect, Test Example 3",[3],A (100)
Cc1cc([S+]([O-])C(F)(F)F)ccc1NC(=O)c1cccc(I)c1C(=O)NC(C)C (stereo not drawn) [compound 1168],"Insecticidal effect, Test Example 2",[1],A (100)
same,"Insecticidal effect, Test Example 1",[2],A (100)
same,"Insecticidal effect, Test Example 3",[3],A (100)
Cc1cc([S+]([O-])C(F)(F)F)ccc1NC(=O)c1cccc(I)c1C(=O)NC(C)(C)C (stereo not drawn) [compound 1169],"Insecticidal effect, Test Example 2",[1],A (100)
same,"Insecticidal effect, Test Example 1",[2],A (100)
same,"Insecticidal effect, Test Example 3",[3],A (100)
CC(C)NC(=O)c1c(I)cccc1C(=O)Nc1ccc2oc(-c3ccc(C(F)(F)F)cc3)nc2c1 [compound 1173],"Insecticidal effect, Test Example 2",[1],A (100)
same,"Insecticidal effect, Test Example 1",[2],A (100)
same,"Insecticidal effect, Test Example 3",[3],A (100)
CC(C)(C)NC(=O)c1c(I)cccc1C(=O)Nc1ccc2oc(-c3ccc(C(F)(F)F)cc3)nc2c1 [compound 1174],"Insecticidal effect, Test Example 2",[1],A (100)
same,"Insecticidal effect, Test Example 1",[2],A (100)
same,"Insecticidal effect, Test Example 3",[3],A (100)
CCN(CC)C(=O)c1c(I)cccc1C(=O)Nc1ccc(OC(F)(F)F)cc1F [compound 1190],"Insecticidal effect, Test Example 2",[1],A (100)
same,"Insecticidal effect, Test Example 1",[2],A (100)
same,"Insecticidal effect, Test Example 3",[3],A (100)
Cc1cc(C(F)(F)C(F)(F)F)ccc1NC(=O)c1cccc(OC(F)(F)F)c1C(=O)NC(C)C [compound 1191],"Insecticidal effect, Test Example 2",[1],A (100)
same,"Insecticidal effect, Test Example 1",[2],A (100)
same,"Insecticidal effect, Test Example 3",[3],A (100)
Cc1cc(C(F)(F)C(F)(F)F)ccc1NC(=O)c1cccc(OC(F)(F)F)c1C(=O)NC(C)(C)C [compound 1192],"Insecticidal effect, Test Example 2",[1],A (100)
same,"Insecticidal effect, Test Example 1",[2],A (100)
same,"Insecticidal effect, Test Example 3",[3],A (100)
CCN(CC)C(=O)c1c(OC(F)(F)F)cccc1C(=O)Nc1ccc(C(F)(F)C(F)(F)F)cc1C [compound 1193],"Insecticidal effect, Test Example 2",[1],A (100)
same,"Insecticidal effect, Test Example 1",[2],A (100)
same,"Insecticidal effect, Test Example 3",[3],A (100)
Cc1cc(C(F)(F)C(F)(F)F)ccc1NC(=O)c1ccc(I)cc1C(=O)NC(C)C [compound 1202],"Insecticidal effect, Test Example 2",[1],A (100)
same,"Insecticidal effect, Test Example 1",[2],A (100)
same,"Insecticidal effect, Test Example 3",[3],A (100)
Cc1cc(C(F)(F)C(F)(F)F)ccc1NC(=O)c1cc(I)ccc1C(=O)NC(C)C [compound 1203],"Insecticidal effect, Test Example 2",[1],D (79-50)
same,"Insecticidal effect, Test Example 1",[2],A (100)
same,"Insecticidal effect, Test Example 3",[3],A (100)
Cc1cc(OC(F)F)ccc1NC(=O)c1ccc(I)cc1C(=O)NC(C)C [compound 1204],"Insecticidal effect, Test Example 2",[1],A (100)
same,"Insecticidal effect, Test Example 1",[2],A (100)
same,"Insecticidal effect, Test Example 3",[3],A (100)
Cc1cc(OC(F)(F)C(F)F)ccc1NC(=O)c1cccc(C(F)(F)F)c1C(=O)NC(C)C [compound 1206],"Insecticidal effect, Test Example 2",[1],A (100)
same,"Insecticidal effect, Test Example 1",[2],A (100)
same,"Insecticidal effect, Test Example 3",[3],A (100)
Cc1cc(C(F)(C(F)(F)F)C(F)(F)F)ccc1NC(=O)c1cccc(C(F)(F)F)c1C(=O)NC(C)C [compound 1207],"Insecticidal effect, Test Example 2",[1],A (100)
same,"Insecticidal effect, Test Example 1",[2],A (100)
same,"Insecticidal effect, Test Example 3",[3],A (100)
CCc1cc(OC(F)(F)F)ccc1NC(=O)c1cccc(Cl)c1C(=O)NC(C)C [compound 1209],"Insecticidal effect, Test Example 2",[1],D (79-50)
same,"Insecticidal effect, Test Example 1",[2],A (100)
same,"Insecticidal effect, Test Example 3",[3],A (100)
CCc1cc(OC(F)(F)F)ccc1NC(=O)c1cccc(I)c1C(=O)NC(C)C [compound 1210],"Insecticidal effect, Test Example 2",[1],A (100)
same,"Insecticidal effect, Test Example 1",[2],A (100)
same,"Insecticidal effect, Test Example 3",[3],A (100)
CCc1cc(OC(F)(F)F)ccc1NC(=O)c1cccc(I)c1C(=O)NC(C)(C)C [compound 1211],"Insecticidal effect, Test Example 2",[1],A (100)
same,"Insecticidal effect, Test Example 1",[2],A (100)
same,"Insecticidal effect, Test Example 3",[3],A (100)
CCc1cc(OC(F)(F)F)ccc1NC(=O)c1cccc(I)c1C(=O)N(CC)CC [compound 1212],"Insecticidal effect, Test Example 2",[1],A (100)
same,"Insecticidal effect, Test Example 1",[2],A (100)
same,"Insecticidal effect, Test Example 3",[3],A (100)
Cc1cc(OC(F)(F)F)ccc1NC(=O)c1ccc(Cl)c(Cl)c1C(=O)NC(C)C [compound 1221],"Insecticidal effect, Test Example 2",[1],A (100)
same,"Insecticidal effect, Test Example 1",[2],A (100)
same,"Insecticidal effect, Test Example 3",[3],A (100)
"Cc1cc(C(F)(F)C(F)(F)F)ccc1NC(=O)c1ccc(Cl)c(Cl)c1C(=O)NC(C)C [compound 1222, 3,4-dichloro-N^1-(4-pentafluoroethyl-2-methylphenyl)-N^2-isopropylphthalic acid diamide]","Insecticidal effect, Test Example 2",[1],A (100)
same,"Insecticidal effect, Test Example 1",[2],A (100)
same,"Insecticidal effect, Test Example 3",[3],A (100)
Cc1cc(C(F)(C(F)(F)F)C(F)(F)F)ccc1NC(=O)c1ccc(Cl)c(Cl)c1C(=O)NC(C)C [compound 1223],"Insecticidal effect, Test Example 2",[1],A (100)
same,"Insecticidal effect, Test Example 1",[2],A (100)
same,"Insecticidal effect, Test Example 3",[3],A (100)
Cc1cc(OC(F)(F)F)ccc1NC(=O)c1ccc(F)c(Cl)c1C(=O)NC(C)C [compound 1227],"Insecticidal effect, Test Example 2",[1],A (100)
same,"Insecticidal effect, Test Example 1",[2],A (100)
same,"Insecticidal effect, Test Example 3",[3],A (100)
Cc1cc(C(F)(F)C(F)(F)F)ccc1NC(=O)c1ccc(F)c(Cl)c1C(=O)NC(C)C [compound 1228],"Insecticidal effect, Test Example 2",[1],A (100)
same,"Insecticidal effect, Test Example 1",[2],A (100)
same,"Insecticidal effect, Test Example 3",[3],A (100)
Cc1cc(C(F)(C(F)(F)F)C(F)(F)F)ccc1NC(=O)c1ccc(F)c(Cl)c1C(=O)NC(C)C [compound 1229],"Insecticidal effect, Test Example 2",[1],A (100)
same,"Insecticidal effect, Test Example 1",[2],A (100)
same,"Insecticidal effect, Test Example 3",[3],A (100)
Cc1cc(OC(F)(F)F)ccc1NC(=O)c1cccc(C(F)(F)F)c1C(=O)NC(C)(C)C [compound 1230],"Insecticidal effect, Test Example 2",[1],A (100)
same,"Insecticidal effect, Test Example 1",[2],A (100)
same,"Insecticidal effect, Test Example 3",[3],A (100)
Cc1cc(C(F)(F)C(F)(F)F)ccc1NC(=O)c1cccc(C(F)(F)F)c1C(=O)NC(C)(C)C [compound 1231],"Insecticidal effect, Test Example 2",[1],A (100)
same,"Insecticidal effect, Test Example 1",[2],A (100)
same,"Insecticidal effect, Test Example 3",[3],A (100)
Cc1cc(C(F)(C(F)(F)F)C(F)(F)F)ccc1NC(=O)c1cccc(C(F)(F)F)c1C(=O)NC(C)(C)C [compound 1232],"Insecticidal effect, Test Example 2",[1],A (100)
same,"Insecticidal effect, Test Example 1",[2],A (100)
same,"Insecticidal effect, Test Example 3",[3],A (100)
Cc1cc(OC(F)(F)F)ccc1NC(=O)c1ccc(I)cc1C(=O)NC(C)C [compound 1246],"Insecticidal effect, Test Example 2",[1],A (100)
same,"Insecticidal effect, Test Example 1",[2],A (100)
same,"Insecticidal effect, Test Example 3",[3],A (100)

# From patent US6362369B1, “Phthalic acid diamide derivatives fluorine-containing aniline compounds as starting material, agricultural and horticultural insecticides, and a method for application of the insecticides” (Nihon Nohyaku Co., Ltd., priority 1997, dated 2002)
